Source: the NIST ThermoML archive (doi:10.1016/j.fluid.2007.11.005)

Settings: Liquid, Bellows volumetry

CCCCn1cc[n+](C)c1.F[B-](F)(F)F [1-butyl-3-methylimidazolium tetrafluoroborate]
mass density [kg/m3]
Settings | 392.8 K | 412.9 K | 432.6 K | 452.3 K | 472.2 K
10000 kPa | – | 1129 | 1116 | 1102 | 1090
20000 kPa | – | 1135 | 1122 | 1108 | 1096
30000 kPa | – | 1140 | 1127 | 1115 | 1102
40000 kPa | – | 1145 | 1133 | 1120 | 1108
50000 kPa | – | 1150 | 1138 | 1126 | 1114
60000 kPa | – | 1155 | 1143 | 1131 | 1119
70000 kPa | – | 1160 | 1148 | 1136 | 1124
80000 kPa | – | 1164 | 1152 | 1140 | 1129
90000 kPa | – | 1169 | 1157 | 1145 | 1134
100000 kPa | 1184 | 1173 | 1161 | 1150 | 1139
110000 kPa | 1188 | 1177 | 1165 | 1154 | 1143
120000 kPa | 1192 | 1181 | 1170 | 1158 | 1147
130000 kPa | 1195 | 1185 | 1173 | 1162 | 1152
140000 kPa | 1199 | 1189 | 1177 | 1166 | 1156
150000 kPa | 1203 | 1192 | 1181 | 1170 | 1160
160000 kPa | 1206 | 1196 | 1185 | 1174 | 1164
170000 kPa | 1210 | 1199 | 1188 | 1177 | 1167
180000 kPa | 1213 | 1203 | 1192 | 1181 | 1171
190000 kPa | 1216 | 1206 | 1195 | 1185 | 1175
200000 kPa | 1220 | 1210 | 1199 | 1188 | 1178
